The results in this text go back to ChEMBL document CHEMBL5291721, “A preclinical secondary pharmacology resource illuminates target-adverse drug reaction associations of marketed drugs” (Nat Commun, 2023).

Each structure is given as a SMILES string.

Test [1] deals with Acetylcholinesterase (Homo sapiens, UniProt P22303). The format is functional.
The target in test [2] is Vascular endothelial growth factor receptor 2 (Homo sapiens, UniProt P35968). The class given is functional.
For test [3], the target named is Synaptic vesicular amine transporter (Rattus norvegicus, UniProt Q01827). The format is functional.
The target in test [4] is T1, Thromboxane A2 receptor (Homo sapiens, UniProt P21731).
T1 sequence (P21731 whole entry): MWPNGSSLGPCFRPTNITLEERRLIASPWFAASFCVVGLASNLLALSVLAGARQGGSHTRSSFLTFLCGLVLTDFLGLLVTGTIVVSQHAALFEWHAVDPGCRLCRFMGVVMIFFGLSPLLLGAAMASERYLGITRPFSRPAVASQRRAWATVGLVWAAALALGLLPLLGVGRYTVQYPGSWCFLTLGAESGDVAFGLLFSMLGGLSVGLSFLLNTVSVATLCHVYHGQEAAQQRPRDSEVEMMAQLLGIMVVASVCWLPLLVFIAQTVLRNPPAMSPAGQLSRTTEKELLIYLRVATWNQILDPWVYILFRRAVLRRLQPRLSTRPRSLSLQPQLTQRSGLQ
The class given is functional.

Test [5] deals with T1, Thromboxane A2 receptor. The format is functional, cell-based.
For test [6], the target named is T2, D(1A) dopamine receptor (Homo sapiens, UniProt P21728). The class given is functional, cell-based.
The target in test [7] is T2, D(1A) dopamine receptor.
The target in test [8] is Estrogen receptor beta (Homo sapiens, UniProt Q92731).
For test [9], the target named is Hydroxycarboxylic acid receptor 2 (Homo sapiens, UniProt Q8TDS4).
Test [10] deals with T3, Endothelin receptor type B (Homo sapiens, UniProt P24530).
T3 sequence (P24530 whole entry): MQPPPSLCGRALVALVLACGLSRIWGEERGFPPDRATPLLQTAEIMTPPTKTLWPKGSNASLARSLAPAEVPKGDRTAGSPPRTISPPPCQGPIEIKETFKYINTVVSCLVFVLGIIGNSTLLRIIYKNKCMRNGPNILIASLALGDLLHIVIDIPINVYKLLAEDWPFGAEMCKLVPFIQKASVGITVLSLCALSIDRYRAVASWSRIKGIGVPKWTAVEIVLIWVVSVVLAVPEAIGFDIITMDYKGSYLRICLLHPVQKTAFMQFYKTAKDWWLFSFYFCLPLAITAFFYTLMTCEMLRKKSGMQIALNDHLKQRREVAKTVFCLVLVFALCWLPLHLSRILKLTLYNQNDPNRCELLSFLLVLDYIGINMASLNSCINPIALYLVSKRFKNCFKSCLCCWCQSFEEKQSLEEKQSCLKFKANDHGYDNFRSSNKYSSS

The target in test [11] is T4, Progesterone receptor (Homo sapiens, UniProt P06401).
T4 sequence (P06401 whole entry): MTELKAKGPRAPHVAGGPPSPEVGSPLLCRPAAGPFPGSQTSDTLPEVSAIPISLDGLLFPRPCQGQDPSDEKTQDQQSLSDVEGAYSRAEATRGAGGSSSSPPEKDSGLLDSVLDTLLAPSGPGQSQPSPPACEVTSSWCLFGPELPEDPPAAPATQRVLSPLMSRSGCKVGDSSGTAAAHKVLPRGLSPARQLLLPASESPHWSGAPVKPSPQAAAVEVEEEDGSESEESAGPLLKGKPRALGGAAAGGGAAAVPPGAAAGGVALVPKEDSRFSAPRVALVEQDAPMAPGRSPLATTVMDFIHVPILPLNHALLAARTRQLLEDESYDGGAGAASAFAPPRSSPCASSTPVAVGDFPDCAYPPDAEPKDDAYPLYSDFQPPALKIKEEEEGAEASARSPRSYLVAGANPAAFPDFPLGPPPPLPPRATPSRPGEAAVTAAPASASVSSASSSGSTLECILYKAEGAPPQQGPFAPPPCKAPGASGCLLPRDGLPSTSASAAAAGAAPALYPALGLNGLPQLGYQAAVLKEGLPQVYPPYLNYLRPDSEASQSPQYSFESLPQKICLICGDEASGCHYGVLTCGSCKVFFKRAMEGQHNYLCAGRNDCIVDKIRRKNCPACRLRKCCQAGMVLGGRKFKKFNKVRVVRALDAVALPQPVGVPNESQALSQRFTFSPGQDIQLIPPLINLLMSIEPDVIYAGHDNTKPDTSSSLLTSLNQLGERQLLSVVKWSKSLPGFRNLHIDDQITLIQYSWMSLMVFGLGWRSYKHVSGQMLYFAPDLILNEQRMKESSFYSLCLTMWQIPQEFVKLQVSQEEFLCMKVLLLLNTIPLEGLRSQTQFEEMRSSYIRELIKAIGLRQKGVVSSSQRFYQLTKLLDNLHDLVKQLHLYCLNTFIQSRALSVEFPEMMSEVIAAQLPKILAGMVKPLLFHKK
Note: assay procedure not described here.

T2 sequence (P21728 whole entry): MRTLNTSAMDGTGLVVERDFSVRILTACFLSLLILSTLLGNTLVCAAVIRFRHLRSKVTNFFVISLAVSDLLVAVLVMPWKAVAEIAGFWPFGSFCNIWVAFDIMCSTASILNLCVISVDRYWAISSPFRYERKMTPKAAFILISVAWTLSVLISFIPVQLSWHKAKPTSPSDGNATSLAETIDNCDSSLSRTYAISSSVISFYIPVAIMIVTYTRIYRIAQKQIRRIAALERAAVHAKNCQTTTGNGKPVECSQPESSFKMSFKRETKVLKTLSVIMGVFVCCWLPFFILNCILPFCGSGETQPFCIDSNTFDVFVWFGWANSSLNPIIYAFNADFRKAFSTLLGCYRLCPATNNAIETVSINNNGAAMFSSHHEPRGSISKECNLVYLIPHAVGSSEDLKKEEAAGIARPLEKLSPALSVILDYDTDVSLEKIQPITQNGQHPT
Vascular endothelial growth factor receptor 2, sequence (P35968 whole entry): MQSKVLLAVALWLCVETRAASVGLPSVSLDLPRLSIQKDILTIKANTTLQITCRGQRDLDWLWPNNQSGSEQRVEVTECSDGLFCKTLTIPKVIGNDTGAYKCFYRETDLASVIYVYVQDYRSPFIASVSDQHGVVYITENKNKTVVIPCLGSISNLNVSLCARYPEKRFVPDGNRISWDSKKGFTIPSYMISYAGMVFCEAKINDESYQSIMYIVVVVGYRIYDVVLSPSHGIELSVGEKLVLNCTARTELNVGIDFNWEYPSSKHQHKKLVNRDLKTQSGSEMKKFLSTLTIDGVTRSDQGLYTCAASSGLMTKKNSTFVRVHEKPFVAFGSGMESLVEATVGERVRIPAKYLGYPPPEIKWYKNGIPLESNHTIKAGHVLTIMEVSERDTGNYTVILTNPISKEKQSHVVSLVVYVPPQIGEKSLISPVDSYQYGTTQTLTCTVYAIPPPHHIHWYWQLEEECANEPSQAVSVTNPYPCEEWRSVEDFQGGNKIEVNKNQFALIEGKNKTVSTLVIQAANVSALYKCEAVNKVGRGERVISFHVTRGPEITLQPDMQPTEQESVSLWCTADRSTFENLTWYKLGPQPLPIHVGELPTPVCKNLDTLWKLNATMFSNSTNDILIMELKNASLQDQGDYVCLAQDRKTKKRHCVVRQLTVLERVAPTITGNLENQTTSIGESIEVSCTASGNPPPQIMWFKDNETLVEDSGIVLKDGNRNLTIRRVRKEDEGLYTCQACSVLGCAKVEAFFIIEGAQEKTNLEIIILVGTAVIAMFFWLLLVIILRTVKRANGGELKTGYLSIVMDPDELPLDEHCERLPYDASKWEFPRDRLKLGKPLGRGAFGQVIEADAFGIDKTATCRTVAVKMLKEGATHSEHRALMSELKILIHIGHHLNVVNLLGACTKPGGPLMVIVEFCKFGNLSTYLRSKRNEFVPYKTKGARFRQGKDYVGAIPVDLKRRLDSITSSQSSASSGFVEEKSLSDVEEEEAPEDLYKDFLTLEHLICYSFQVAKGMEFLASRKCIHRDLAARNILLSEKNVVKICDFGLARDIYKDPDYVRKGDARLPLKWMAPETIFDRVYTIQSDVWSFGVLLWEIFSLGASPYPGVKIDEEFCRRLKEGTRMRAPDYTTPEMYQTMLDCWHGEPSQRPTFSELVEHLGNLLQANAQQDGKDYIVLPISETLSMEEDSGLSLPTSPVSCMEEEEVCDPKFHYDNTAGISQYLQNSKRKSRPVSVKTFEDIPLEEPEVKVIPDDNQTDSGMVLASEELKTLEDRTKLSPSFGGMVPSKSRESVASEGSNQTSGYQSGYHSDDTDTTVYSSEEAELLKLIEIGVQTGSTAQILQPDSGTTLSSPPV
Acetylcholinesterase, sequence (P22303 whole entry): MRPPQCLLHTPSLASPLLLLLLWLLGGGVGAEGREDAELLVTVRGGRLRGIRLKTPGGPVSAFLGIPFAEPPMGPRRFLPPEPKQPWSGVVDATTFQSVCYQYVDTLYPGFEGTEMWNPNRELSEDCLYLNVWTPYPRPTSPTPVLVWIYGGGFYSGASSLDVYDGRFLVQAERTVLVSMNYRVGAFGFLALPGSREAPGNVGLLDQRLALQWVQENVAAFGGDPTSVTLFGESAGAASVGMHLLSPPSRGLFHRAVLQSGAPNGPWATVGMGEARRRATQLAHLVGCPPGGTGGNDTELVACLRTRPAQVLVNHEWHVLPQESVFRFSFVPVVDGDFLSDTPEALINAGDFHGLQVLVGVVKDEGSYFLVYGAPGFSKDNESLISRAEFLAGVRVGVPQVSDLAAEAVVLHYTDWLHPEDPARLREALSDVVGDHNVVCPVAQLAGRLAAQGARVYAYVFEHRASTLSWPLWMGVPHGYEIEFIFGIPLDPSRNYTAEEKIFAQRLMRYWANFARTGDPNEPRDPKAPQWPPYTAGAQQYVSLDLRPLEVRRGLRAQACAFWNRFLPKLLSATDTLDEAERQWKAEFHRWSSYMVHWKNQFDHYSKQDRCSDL
Hydroxycarboxylic acid receptor 2, sequence (Q8TDS4 whole entry): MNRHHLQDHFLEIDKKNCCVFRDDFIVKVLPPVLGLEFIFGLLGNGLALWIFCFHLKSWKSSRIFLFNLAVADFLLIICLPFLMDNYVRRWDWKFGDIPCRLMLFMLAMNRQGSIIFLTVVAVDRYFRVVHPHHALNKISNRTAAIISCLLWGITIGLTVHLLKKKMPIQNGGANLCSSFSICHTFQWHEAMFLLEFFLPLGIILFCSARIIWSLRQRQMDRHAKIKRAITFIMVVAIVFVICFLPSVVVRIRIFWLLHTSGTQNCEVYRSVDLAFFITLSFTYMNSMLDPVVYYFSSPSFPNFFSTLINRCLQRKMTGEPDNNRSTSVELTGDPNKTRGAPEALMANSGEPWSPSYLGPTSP
Synaptic vesicular amine transporter, sequence (Q01827 whole entry): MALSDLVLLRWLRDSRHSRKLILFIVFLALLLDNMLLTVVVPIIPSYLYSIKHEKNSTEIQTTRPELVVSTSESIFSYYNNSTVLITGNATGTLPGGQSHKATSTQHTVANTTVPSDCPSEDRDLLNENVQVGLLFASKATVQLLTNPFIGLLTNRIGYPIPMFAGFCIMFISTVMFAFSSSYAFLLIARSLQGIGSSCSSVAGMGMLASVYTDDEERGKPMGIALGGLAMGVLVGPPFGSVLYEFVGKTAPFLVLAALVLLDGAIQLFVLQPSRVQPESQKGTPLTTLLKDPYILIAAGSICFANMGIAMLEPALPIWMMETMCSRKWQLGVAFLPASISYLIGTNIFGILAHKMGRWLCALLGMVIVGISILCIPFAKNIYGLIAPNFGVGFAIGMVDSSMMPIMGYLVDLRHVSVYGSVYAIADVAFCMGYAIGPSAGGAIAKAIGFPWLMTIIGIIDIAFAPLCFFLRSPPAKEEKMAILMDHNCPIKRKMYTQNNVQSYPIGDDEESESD
Estrogen receptor beta, sequence (Q92731 whole entry): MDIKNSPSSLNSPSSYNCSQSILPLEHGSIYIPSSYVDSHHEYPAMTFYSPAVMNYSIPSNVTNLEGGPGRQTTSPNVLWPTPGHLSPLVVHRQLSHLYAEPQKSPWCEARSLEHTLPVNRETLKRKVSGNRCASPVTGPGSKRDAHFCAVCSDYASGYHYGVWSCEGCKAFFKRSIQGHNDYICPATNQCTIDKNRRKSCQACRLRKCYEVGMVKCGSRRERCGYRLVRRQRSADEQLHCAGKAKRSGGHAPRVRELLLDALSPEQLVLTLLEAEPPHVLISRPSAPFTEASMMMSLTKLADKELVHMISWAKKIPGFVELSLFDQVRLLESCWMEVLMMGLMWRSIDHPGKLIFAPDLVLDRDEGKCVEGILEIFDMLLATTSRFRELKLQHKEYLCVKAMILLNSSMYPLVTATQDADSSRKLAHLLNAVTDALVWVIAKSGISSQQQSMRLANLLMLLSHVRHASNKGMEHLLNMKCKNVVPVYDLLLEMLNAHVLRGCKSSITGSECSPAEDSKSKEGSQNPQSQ

Consider `CCOc1cc([C@@H](CS(C)(=O)=O)N2C(=O)c3cccc(NC(C)=O)c3C2=O)ccc1OC`, for which the AC50 in [1], in [2], in test [3], in [4], in test [5] and in test [6] was greater than 30 µM in each case.

`Cc1nnc(SCC2=C(C(=O)O)N3C(=O)[C@@H](NC(=O)Cn4cnnn4)[C@H]3SC2)s1` [CEFAZOLIN]: the AC50 in test [1], in [2], in test [4], in test [5] and in test [6] was greater than 300 µM in each case.

In the case of `CC(C)(O/N=C(\C(=O)N[C@@H]1C(=O)N2C(C(=O)[O-])=C(C[n+]3ccccc3)CS[C@H]12)c1csc(N)n1)C(=O)O` [CEFTAZIDIME], the AC50 in test [1], in test [2], in [4], in test [5] and in test [6] was greater than 300 µM each time.

Take `Clc1ccc(Cn2c(CN3CCCC3)nc3ccccc32)cc1` [CLEMIZOLE]: the AC50 was greater than 30 µM in [1]; greater than 30 µM in [2]; greater than 10 µM in test [4]; greater than 10 µM in [5]; greater than 30 µM in test [6].

In turn, `CN[C@@H]1[C@H](O[C@H]2[C@H](O[C@H]3[C@H](O)[C@@H](O)[C@H](NC(=N)N)[C@@H](O)[C@@H]3NC(=N)N)O[C@@H](C)[C@]2(O)CO)O[C@@H](CO)[C@H](O)[C@H]1O` [DIHYDROSTREPTOMYCIN] showed a concentration at half-maximal activity (AC50) in [7] greater than 30 µM.

`Cc1onc(-c2c(F)cccc2Cl)c1C(=O)N[C@@H]1C(=O)N2[C@@H]1SC(C)(C)[C@@H]2C(=O)O` [FLOXACILLIN]: the AC50 in test [1], in [2], in test [4], in [5] and in test [6] was greater than 30 µM each time.

As for `C#C[C@]1(O)C=C[C@H]2[C@@H]3CCC4=CC(=O)CC[C@@H]4[C@H]3CC[C@@]21CC` [GESTODENE], the AC50 in test [7] is greater than 30 µM.

Take `CC(CN1c2ccccc2Sc2ccccc21)N(C)C` (centres undefined) [PROMETHAZINE]: the half-maximal activity concentration (AC50) was greater than 30 µM in test [8]; greater than 10 µM in test [9]; greater than 30 µM in test [10]; greater than 30 µM in [11]; greater than 30 µM in [7].

Turning to `S=P(N1CC1)(N1CC1)N1CC1` [THIOTEPA], the AC50 in test [1] was greater than 30 µM; in [2], greater than 30 µM; in test [4], greater than 10 µM; in [5], greater than 30 µM; in [6] it was greater than 30 µM.

For `CC(C)C[C@H](NC(=O)[C@@H](O)[C@H](N)Cc1ccccc1)C(=O)O` [UBENIMEX], the AC50 in test [7] is greater than 30 µM.
